From ChEMBL document CHEMBL3507680, “University of Dundee, Gates Library screen for HepG2 cell viability”

Test: Human HepG2 cell viability assay in 384 well format
Assay type: toxicity, cell-based
Parameters: dose 125 nL, time 70.5 hour; concentration not given beside the values
Conditions: HepG2 cells, read-out: Inhibition

Structure (SMILES)	cytotoxicity at 70.5 h
CCCS(=O)(=O)CC(=O)NC(C)c1cccc(-n2cccn2)c1 (stereo not drawn)	10.5%
CC(NCc1cnn(C)c1)c1noc(-c2ccc(Cl)cc2)n1 (stereo not drawn)	-5.15%
CCC(C)Oc1cc(C(=O)N(c2cccnc2)C(C)C)ccn1 (stereo not drawn)	0.858%
CC(NS(=O)(=O)N(C)C)c1cccc(-n2cccn2)c1 (stereo not drawn)	-3.97%
O=C(C1CC1)N(CCc1ccccc1)C1CCOC1 (stereo not drawn)	-6.28%
Cn1ccnc1C(O)(CCNCc1ccc(Cl)o1)C(F)(F)F (stereo not drawn)	-14.8%
Cn1ccnc1C(O)(CCNCc1ccco1)C(F)(F)F (stereo not drawn)	5.83%
CC(=O)N1CCC(Oc2cccc(C#N)c2)CC1	13.4%
Cn1cc(C(NCc2ccc(F)cc2)c2cccc(F)c2)cn1 (stereo not drawn)	-13.5%
COc1ccc(CN2CCCC(n3cccn3)C2)c(Cl)c1OC (stereo not drawn)	-9%
CC(C(=O)N(C)Cc1ccc(Br)o1)n1cncn1 (stereo not drawn)	-1.04%
COc1cccc(COCC(=O)NC2CCN(CC(N)=O)CC2)c1	-5.13%
Cc1ccc(S(=O)(=O)NCc2[nH]ncc2Br)cc1C	-8.92%
Cc1ccc(C(C)NC(=O)Cc2c(C)nc3cc(=O)[nH]n3c2C)s1 (stereo not drawn)	-10.8%
CC/C=C(/C)C(=O)N1CSCC1C(=O)NC1=NCCS1 (stereo not drawn)	-7.18%
Cc1ccc(NC2CCN(C(=O)CCC3CCCO3)CC2)nn1 (stereo not drawn)	-3.33%
CCC(C)(O)CNc1ccc(S(=O)(=O)C(F)F)cc1 (stereo not drawn)	-5.3%
CNC(=O)C(CC(C)C)NC(=O)c1cccc(-c2nc(C)cs2)c1 (stereo not drawn)	15.4%
COCC(O)CNc1cncc(Br)c1 (stereo not drawn)	-2.5%
Cc1ccc(CNC(=O)c2ccc(CNS(C)(=O)=O)o2)cc1F	17.8%
O=C(CCc1nc(-c2cccnc2)no1)N(CC1CCOC1)C1CC1 (stereo not drawn)	12%
CC(C)(C)c1noc(CCC(=O)N(CC2CCOC2)C2CC2)n1 (stereo not drawn)	2.82%
COCCN1CC(C(=O)N(C)Cc2ccc(Cl)s2)CC1=O (stereo not drawn)	-10.5%
Cc1ccc(CN(C)C(=O)C(C)n2cncn2)o1 (stereo not drawn)	-4.1%

Structure (SMILES)	cytotoxicity at 70.5 h
COc1c(C)cnc(CN2CCn3c(nnc3C3CC3)C2)c1C	-2.97%
c1ccc(CCN2CCC(OCC3CCCCO3)CC2)nc1 (stereo not drawn)	5.3%
Cc1cccc2nc(CN3CCC(N4CCN(C)C4=O)CC3)cn12	-4.38%
CC(C)(C)NC(=O)CNc1ncccn1	-8.78%
CN(C)CCN(Cc1ccc(Cl)cc1)C(=O)c1ccn(C)c(=O)c1	-5.83%
Cc1cc(C(=O)NC(C)Cc2ccc(N(C)C)cc2)n(C)n1 (stereo not drawn)	-1.34%
Cc1cc(C)n2cc(CN3CCC(N4CCN(C)C4=O)CC3)nc2n1	-0.599%
c1cnc(N2CCC(OCC3CCCCO3)CC2)nc1 (stereo not drawn)	-2.08%
COC(=O)NCC(=O)N1CCC(c2cc3ccccc3[nH]2)CC1	-8.79%
Clc1cccc(C(CNCc2ccccn2)N2CCOCC2)c1 (stereo not drawn)	48.6%
CCOC1CCCN(C(=O)CCOc2ccc(C)cc2OC)C1 (stereo not drawn)	24.8%
CNS(=O)(=O)c1ccc(F)c(C(=O)NCc2ccnc(OC)c2)c1	25.8%
CC(C)CC(=O)N1CCC2(CC1)OCCO2	-6.38%
CC(C)C(C)NC(=O)CNc1cc2c(cc1Cl)NC(=O)CO2 (stereo not drawn)	6.71%
CC(NC(=O)CNc1cc2c(cc1Cl)OCCO2)c1ccco1 (stereo not drawn)	-8.18%
COc1ccc(-c2nc(CCNC(=O)NC3CCC(O)CC3)co2)cc1 (stereo not drawn)	17.3%
CCN(C)c1cc(CNC(=O)CNC(=O)CC2CCCCC2)ccn1	-16.4%
Clc1cccc(C(CNc2ncccn2)N2CCOCC2)c1 (stereo not drawn)	-5.68%
CCc1[nH]c(C2(N)CCCCC2)nc(=O)c1C	-4.64%
CCc1[nH]c(C2(N)CCCC2)nc(=O)c1C	19.5%
CCOC1CCN(C(=O)NCc2cccc(-n3cccn3)c2)CC1	-5.08%
NC(=O)CC1CCN(C(=O)NCc2cccc(-n3cccn3)c2)CC1	-1.91%
CCSCc1csc(-c2ccc(S(C)(=O)=O)cc2)n1	-2.67%
COc1ccc(Cl)cc1CCNC(=O)NCc1ncnn1C	-13.1%

Structure (SMILES)	cytotoxicity at 70.5 h
COc1cc(C)ccc1OCC(=O)NS(=O)(=O)c1cccnc1	-3.71%
CC(C)(C)c1nccc(N2CCCCC2CCNS(C)(=O)=O)n1 (stereo not drawn)	2.95%
CCc1noc(Cn2c(=O)c3c(C(F)(F)F)cc(C)nc3n2C)n1	19.2%
CCS(=O)(=O)NCC(=O)NC(c1cc(C)sc1C)C(C)C (stereo not drawn)	-0.761%
Cc1cc(Cn2c(=O)c3c(C(F)(F)F)cc(C)nc3n2C)on1	-3.01%
COc1cccc(OC)c1CC(=O)NC(C#N)c1ccsc1 (stereo not drawn)	-12.5%
N#CC(NC(=O)CNC(=O)c1ccccc1)c1ccsc1 (stereo not drawn)	-3.11%
Cc1cc(C(NC(=O)CNS(C)(=O)=O)C(C)C)c(C)s1 (stereo not drawn)	1.39%
COc1cc(C)ccc1OCCC(=O)N1CCCC(n2cncn2)C1 (stereo not drawn)	-9.18%
CC(C)COc1cncc(N2CCCN(CC(F)(F)F)CC2)n1	-5.33%
Cc1nc2n(n1)CC(NCc1c(Cl)ccc3cccnc13)CC2 (stereo not drawn)	-9.95%
O=S(=O)(NCCc1cn2ccccc2n1)N1CCOCC1	-7.24%
CC(NC(=O)N1CCCCCC1)c1ccc(S(N)(=O)=O)cc1 (stereo not drawn)	-7.46%
CC(NC(=O)N1CCC1)c1ccc(S(N)(=O)=O)cc1 (stereo not drawn)	-7.27%
Cc1noc(C2CCN(Cn3cc(Cl)cn3)CC2)n1	-4.35%
CC(NC(=O)N1CCCN(C)CC1)c1ccc(S(N)(=O)=O)cc1 (stereo not drawn)	-4.13%
NC(=O)C1CCN(c2ccc(C(=O)N3CCc4ccccc43)cn2)C1 (stereo not drawn)	-4.05%
COc1ccc(CCNC(=O)c2ccc(=O)n(C)c2)c(Cl)c1	-7.56%
CC(CC(=O)c1ccccc1)NC(=O)c1ccon1 (stereo not drawn)	-5.06%
CCOc1ccc(Cl)cc1CCNC(=O)Cn1nc(C)ccc1=O	7.64%
NC(=O)[C@@H]1Cc2ccccc2N1C(=O)C1CC(c2ccccc2)=NO1 (stereo partly drawn)	6.72%
CC(C)COc1cncc(N2CCCN(c3ncccn3)CC2)n1	-7.71%
CC(C)n1ccc(C(=O)OCC2CC(=O)N(Cc3ccccc3)C2)n1 (stereo not drawn)	-8.67%
O=C(CNC(=O)c1ccc(Cl)cc1)Nc1nccs1	20.2%

Structure (SMILES)	cytotoxicity at 70.5 h
CC(C)N1CCC(NC(=O)NCc2ccccc2)CC1	-0.0959%
Cn1c(SCc2noc(C(C)(C)C)n2)nnc1C1CCS(=O)(=O)C1 (stereo not drawn)	-7.06%
CC(C)CN1CCC(NC(=O)NCCC(=O)NCc2ccccc2)CC1	-2.46%
Cc1noc(C)c1CS(=O)(=O)CC(=O)NCCc1ccccc1	15.9%
COCCCC(=O)Nc1[nH]nc(-c2ccncc2)c1C	-3.19%
CC(C)(CNC(=O)C1CCCN(C(N)=O)C1)c1cccc(Cl)c1 (stereo not drawn)	9.61%
NC(=O)Nc1cccc(CNC(=O)CCCOCc2ccccc2)c1	2.63%
CCc1[nH]ncc1C(=O)N1CCN(c2nccc(OC)n2)CC1	-3.61%
Cc1nc2n(n1)CC(NCc1ccccc1OCC(=O)N(C)C)CC2 (stereo not drawn)	-3.73%
Cn1nc2c(cc1=O)CN(CCCOc1ccc(C#N)cc1)CC2	-5.17%
CC(C)N1CCC(NC(=O)NCc2cccnc2)C1 (stereo not drawn)	-1.38%
Cc1ccccc1C(=O)NCCC(=O)NS(=O)(=O)c1cccnc1	19.3%
O=C(CCNC(=O)NC1CCN(C2CC2)CC1)NCc1ccccc1	-3.29%
OCCN(Cc1cccnc1)c1ccc(Cl)cn1	-2.8%
CCc1nc2n(n1)CC(NCc1ccccc1OCC(=O)NC)CC2 (stereo not drawn)	-2.9%
COC(=O)c1oc(CNC(C)(C)c2ccc3c(c2)OCCO3)cc1C	20.9%
CC(C)c1cc(C(=O)N2CCN(Cc3ccc(C#N)cc3)CC2)n[nH]1	-4.18%
COc1ccnc(N2CCN(C(=O)c3csc(C)n3)CC2)n1	-4.93%
COc1ccnc(N2CCN(C(=O)c3csnn3)CC2)n1	-3.32%
Cc1cc2n(n1)CC(CNC1CCN(CCc3ccccc3)CC1)CN2 (stereo not drawn)	0.368%
CCOc1cc(C)ccc1NS(=O)(=O)c1cc(C)c(C(=O)O)s1	-1.53%
Cc1nc(CN2CCC(CNC(=O)C3(C)CCCC3)CC2)oc1C	-4.66%
CC(NC(=O)Nc1ccccc1CN1CCOCC1)c1nccs1 (stereo not drawn)	-2.17%
Cc1ccsc1C(=O)NC1CCN(c2cnn(C)c2)C1=O (stereo not drawn)	17.9%

Structure (SMILES)	cytotoxicity at 70.5 h
Cn1cc(N2CCC(NC(=O)c3ccccc3Cl)C2=O)cn1 (stereo not drawn)	1.26%
Cn1cc(N2CCC(NC(=O)c3c(F)cccc3Cl)C2=O)cn1 (stereo not drawn)	-3.25%
CSC(C)(C)CNC(=O)NCc1cccc(-n2cncn2)c1	-0.656%
Cc1nc(CN2CCC(CNC(=O)C3CCOC3)CC2)oc1C (stereo not drawn)	16.3%
CCC(CC)c1cc(CNC(=O)N2CCCN(C(C)=O)CC2)on1	-3.25%
Cc1noc(CCCC(=O)NC(C)c2nnc3n2CCC3)n1 (stereo not drawn)	-4.98%
CCN1CCN(c2ccc(F)cc2C(C)NCc2cscn2)CC1 (stereo not drawn)	-3.66%
COCc1nc(C(=O)N2CCN(c3nccc(OC)n3)CC2)cs1	14.1%
O=C(CCNC(=O)c1sccc1-c1ccccc1)NC1CCS(=O)(=O)C1 (stereo not drawn)	-9.28%
O=C(CNc1cc2c(cc1Cl)OCCO2)NCC(F)(F)F	-3.78%
O=C1CC2(CCCCC2)C(=O)N1CC(O)COCc1ccccc1F (stereo not drawn)	-4.1%
CCN(CC(=O)NC)S(=O)(=O)N1CCCCC1	-7.25%
CCN1CCC(NC(=O)Cn2cc(C)c3ccccc32)CC1	8.33%
Cc1cn(CC(=O)NC2CCC3(CC2)OCCO3)c2ccccc12	-6.58%
O=C(Nc1cccc(N2CCN(CC3CC3)CC2)c1)N1CCCC1	0.629%
CC(=O)NCCC(=O)Nc1cccc(N2CCN(CC3CC3)CC2)c1	-0.54%
CSCC(C)(O)CNC(=O)c1ccc(F)cc1Cl (stereo not drawn)	0.551%
Cc1cnc(NC(=O)N2CCC(N3CCCCC3=O)CC2)s1	-1.3%
OC(CN(Cc1ccccc1)Cc1ccccn1)c1cccs1 (stereo not drawn)	-11%
OC(CN(Cc1ccccc1)Cc1cscn1)c1cccs1 (stereo not drawn)	-2.62%
NCc1ccc(Oc2ccc(F)c(F)c2)cc1C(F)(F)F	-0.173%
c1cc(CNCc2ccnc(N3CCCC3)c2)c2c(c1)OCCO2	5.3%
